We go through one compound from patent US11477967B2, “Microfluidic device, system and methods thereof for measuring and recording electrical signals from a pool of multiple nematodes” (NemaMetrix Inc., priority 2018, dated 2022).

What all share (format): in vivo, C. elegans
The subject of one assay is nematodes. Description: single-nematode EPG recordings (ScreenChip System) and synthetic composite EPG summed from them. The procedure:
(§1) To obtain nematodes of a consistent size that were compatible with the dimensions of the recording channel 120, we utilized a common procedure to obtain a large number of age synchronized eggs. Eggs were deposited in a culture plate containing food and cultivated at 20 C for 3 days, yielding a large population of young adult nematodes.
To prepare nematodes for recording, 2 mL of “normal M9 buffer solution,” defined in Table 3, was added to a culture plate containing young adult nematodes grown from synchronized eggs. The plate was swirled to lift nematodes into the solution and the contents were poured into a 2 mL Eppendorf tube. Nematodes were cleaned of adherent bacteria and debris by 5 cleaning cycles each of which involved pelleting nematodes in a centrifuge (1.2 g, 30 sec), drawing off the supernatant, and resuspending in M9 buffer. […]
According to circuit theory, (i) the waveform of a composite EPG recorded at electrodes 135 and 145 should be the sum of the voltage differences generated by each nematode at its unique location and orientation with respect to the electrodes and other nematodes, and (ii) the peak frequency of the waveform's power spectrum should represent the average pumping frequency of the population of nematodes between the electrodes. […]

The subject of assay [1] is pool of multiple nematodes. Description: composite EPG from a pool of multiple nematodes, microfluidic device 100 / system 200. As to conditions: approximately 25 nematodes between electrodes, serotonin M9 buffer solution (10 mM serotonin); peak absent in normal M9 buffer; FIG. 4C. The procedure: as §1
To prepare nematodes for recording, 2 mL of “normal M9 buffer solution,” defined in Table 3, was added to a culture plate containing young adult nematodes grown from synchronized eggs. The plate was swirled to lift nematodes into the solution and the contents were poured into a 2 mL Eppendorf tube. Nematodes were cleaned of adherent bacteria and debris by 5 cleaning cycles each of which involved pelleting nematodes in a centrifuge (1.2 g, 30 sec), drawing off the supernatant, and resuspending in M9 buffer. To stimulate pharyngeal pumping, the final resuspension used “serotonin M9 buffer solution” which contained 10 mM serotonin in addition to the constituents in Table 3. […]
Two lines of evidence indicate that the recorded activity represents pharyngeal pumping.

The subject of assay [2] is pool of multiple nematodes. Description: composite EPG from a pool of multiple nematodes, microfluidic device 500 / system 600, Solution A versus Solution B. As to conditions: same pool of nematodes; Solution A normal M9 buffer 16 min, Solution B serotonin M9 buffer 25 min; FIG. 7C. An excerpt: To obtain nematodes of a consistent size that were compatible with the dimensions of the recording channel 515, we used the method of Example 2. Alternative methods using filters can also be used to obtain an age/size synchronized population of nematodes for use. See US Patent Publ. No. 2019/0090458.
To prepare nematodes for recording, we used the method of Example 2, except that the final resuspension used “normal M9 buffer solution,” defined in Table 3.
For filling the microfluidic device, we used the method of Example 2, except that the syringe and tubing were filled with “normal M9 buffer solution.”
At the end of this recording, the normal M9 buffer solution was replaced with Solution B, serotonin M9 buffer solution disclosed in Example 1, without dislodging the original pool of nematodes. Replacement was accomplished by exchanging the syringe and tubing filled with normal M9 buffer solution for a syringe and tubing filled with serotonin M9 buffer solution. […]
The center frequency of this peak is within the expected range of pharyngeal pumping frequency. […] However, as the same population of nematodes was recorded under conditions of the two different buffer solutions in FIG. 7C, but not in FIG. 4C, FIG. 7C establishes, in addition, that the system 600 can be used to measure the effect of drugs or other test compounds on pharyngeal pumping. […]

Consider `NCCc1c[nH]c2ccc(O)cc12` [serotonin], for which, in the assay with nematodes (22 nematodes, single-nematode EPGs in serotonin M9 buffer solution (10 mM serotonin), 10-14 min, ± SEM), the average pumping frequency is 4.9±0.13 Hz. Also, the “peak frequency of power spectrum of synthetic (in silico) composite EPG recording” value with nematodes (sum of all 22 single-nematode EPG measurements in serotonin M9 buffer solution (10 mM serotonin), FIG. 3E) is given as 5.1 Hz. Further, the “peak of power spectrum of composite EPG” value in assay [1] came to 5.6 Hz. Also, the “center frequency of peak of difference trace between power spectra of Solution B and Solution A” value in assay [2] was found to be 5 Hz.
